The record followed here is patent US20240018592A1, “METHODS OF ASSESSING THE THERAPEUTIC ACTIVITY OF AGENTS FOR THE TREATMENT OF IMMUNE DISORDERS” (Technion Research & Development Foundation Limited, priority 2020, published 2024).

Holding throughout (type): in vivo, human
Data set [1] relates to Crohn's disease (CD) patients. Kind of data set: Infliximab induction treatment of Crohn's disease patients: clinical and laboratory outcome (CRP, albumin, HBI, clinical response, response classification). The following applies: for HBI 14 w post first treatment: Harvey-Bradshaw Index; for HBI 14 w post first treatment / Albumin 2 w post first treatment / Albumin 14 w post first treatment / CRP 2 w post first treatment / CRP 14 w post first treatment: mean ± SEM. As for the experimental part:
(§1) Sample collection: The cohort consisted of 24 Crohn's disease (CD) patients who received Infliximab anti-TNF treatment at the gastroenterology department of the Rambam Health Care Campus (RHCC) and met the study inclusion criteria as follows: 1) Adequately documented active luminal CD, as phenotyped by a gastroenterologist with expertise in IBD; 2) Documented decision to initiate full infliximab induction regimen with 5 mg/kg induction dosing (i.e. at weeks 0, 2, 6). Patients that had past exposure to Infliximab, Adalimumab or Vedolizumab, or patients who had active infection including febrile diseases or intra-abdominal or perianal abscess were excluded.
(§2) Patient samples were obtained at three time points: at baseline, before infliximab treatment, and two and fourteen weeks post first treatment and assayed for gene expression microarray data.
Patient response classification was defined by decision algorithm, as described previously (Gaujoux et al. 2018). Briefly, patients were classified as responders based on clinical remission, which was defined as cessation of diarrhea and abdominal cramping or, in the cases of patients with fistulas, cessation of fistula drainage and complete closure of all draining fistulas at week 14, coupled with a decision of the treating physician to continue IFX therapy at the current dosing and schedule. Patients that were defined as partial responders, classification was determined by the decision algorithm that included the following hierarchical rules: 1) steroid dependency at week fourteen; 2) biomarker dynamics (Calprotectin and CRP) and 3) response according to clinical state at week 26.
Applying the decision algorithm and exclusion criteria, yielded a final study cohort of 15 and 9 responding and non-responding patients, respectively.

Data set [2] can be described thus: Infliximab drug levels and anti-drug antibodies (ADA) after first treatment. The following applies: drug level, mean ± SEM, levels >20 taken as 20. As for the experimental part:
as §1, §2

Data set [3] relates to immune age (IMM-AGE) score of peripheral blood. The data set can be described thus: Immune-age score from whole blood gene expression (Affymetrix Clariom S, single-sample GSEA) before and after infliximab.
Source text: as §2
Blood transcriptome processing and analysis: Whole blood was preserved in PAXgene Blood RNA tubes (PreAnalytiX). RNA was extracted and assayed using Affymetrix Clariom S chips (Thermo Fisher Scientific). The raw gene array data were processed to obtain a log 2 expression value for each gene probe set using the RMA (robust multichip average) method available in the affy R package. Probe set annotation was performed using affycoretools and clariomshumantranscriptcluster.db packages in R. Data were further adjusted for batch effect using empirical Bayes framework applied by the Combat R package.
Using a high-resolution longitudinal gene expression dataset from peripheral blood samples of 24 CD patients, 15 and 9 responding and non-responding patients, at three time points: pretreatment, 2 and 14 weeks post first treatment, the present inventors evaluated the samples' immune-age score reflecting the samples' position along the high dimensional IMM-AGE trajectory. To quantify the immune age of the CD patients, they used normalized gene expression measurements of the following genes: ABLIM1, AFF3, BACH2, BCL11A, BIRC3, BLNK, BTLA, C11orf31, C6orf48, CCR6, CCR7, CD200, CD22, CD27, CD28, CDCA7L, CHMP7, CR2, DPP4, E2F5, EPHX2, FAIM3, FAM102A, FAM134, FCRL1, FCRL2. HOOK1, HVCN1, IL6ST, IMPDH2, KIAA0748, LEF1, LRRN3, MYC, NELL2, NT5E, P2RX5, PAQR8, PLAG1, PTPRK, RCAN3, SCML1, SLC7A6, SNX9, STRBP, SUSD3, TCF4, TCF7, TCL1A, TCTN1, UXT, VPREB3, ZNF101, ZNF671, CRTC3, STAP1 and HLA-DOB.
The immune-age of the CD patients was estimated by using single-sample GSEA algorithm (Barbie D A et al. Nature 462, 108-112 (2009)). An external IBD (CD and UC) disease specific molecular response axis was used to describe the patients' dynamics by generating a PCA on differential gene expression between active and in-active disease states treated with variety of treatment regimens (using public data, GSE94648).

[4] abbreviates: of 24 CD patients, classified by decision algorithm at week 14.

With Infliximab [IFX], in data set [1] (IFX non-responders (n = 9)), the “HBI 14 w post first treatment” value amounted to 5 ± 2.2, the “Albumin 2 w post first treatment” value amounted to 3.3 ± 0.3, the “Albumin 14 w post first treatment” value was found to be 3.1 ± 0.2 and the “CRP 2 w post first treatment” value was determined as 8.8 ± 3.2. Further, in data set [1] (IFX non-responders (n = 9)), the “CRP 14 w post first treatment” value is listed as 28.0 ± 13.6. In data set [1] (IFX responders (n = 15)), the “HBI 14 w post first treatment” value is reported as 0.8 ± 0.3, the “Albumin 2 w post first treatment” value is 3.7 ± 0.1, the “Albumin 14 w post first treatment” value is on record as 4.0 ± 0.1 and the “CRP 14 w post first treatment” value is reported as 5.1 ± 1.8. Further, in data set [1] (IFX responders (n = 15), 5 mg/kg induction), the “CRP 2 w post first treatment” value is listed as 2.7 ± 0.7. In data set [1] (setting [4]), this substance returned a non-responding patients of 9 patients and a responding patients of 15 patients. Moreover, in data set [2] (IFX non-responders (n = 9)), the “IFX 2 w post first treatment” value was 8.9 ± 1.9 ng/µL and the “IFX 14 w post first treatment” value was determined as 0.9 ± 0.3 ng/µL. In data set [2] (IFX responders (n = 15)), the “IFX 2 w post first treatment” value stood at 10.7 ± 1.8 ng/µL and the “IFX 14 w post first treatment” value came out at 3.3 ± 0.5 ng/µL. Also, in data set [3] (cohort of 24 CD patients treated with anti-TNF (Infliximab)), the “shift of patients' immune age” value was “dramatically shift patients' immune age”. Also, the “immune age dynamics in responders” value in data set [3] (responders versus non-responders, post treatment relative to baseline) is “shifted back their immune age and presented a significant drop”. Moreover, the “immune age score in responders, early” value in data set [3] (responders, 2 weeks post treatment) is reported as “significant reduced immune age score”.
